Measured values taken from patent publication US12384808B2, “Modulators of TNF-α activity” (Forward Therapeutics, Inc., priority 2022, dated 2025).

The molecules below were run against TNFα (Homo sapiens, UniProt P01375) (assay: TNFα Induced HEK Blue Cellular Assay). Conditions: HEK Blue TNFα reporter cells, TNFα 100 pg/ml, 24 hrs at 37° C., secreted alkaline phosphatase (QUANTI-Blue) read at 620 nm; read-out: IC50 value.
Chain of TNFα (P01375 77-233 limits assumed): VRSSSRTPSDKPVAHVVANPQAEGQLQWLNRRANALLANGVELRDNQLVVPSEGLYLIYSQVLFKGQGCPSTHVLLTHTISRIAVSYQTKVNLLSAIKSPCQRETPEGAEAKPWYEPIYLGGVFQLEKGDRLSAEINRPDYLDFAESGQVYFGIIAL
Type: cell-based
Outline: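 Reporter cells (10,000/well, DMEM + 10% FBS) with compound (final […] to 0.5 nM) stimulated with 100 pg/ml TNFα, 24 h at 37 °C, 5% CO2. Secreted alkaline phosphatase read at 620 nm; IC50 by 4-parameter logistic fit after background correction against stimulated/unstimulated DMSO controls.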
With `[2H]C([2H])([2H])N1C(=O)c2cccc(OC(F)F)c2[C@H]2C[C@@H]1c1nc3ccc(-c4ccc(NCP(C)(C)=O)nc4)cc3n12` [Example 98, (7R,14R)-1-(difluoromethoxy)-11-(6-(((dimethylphosphoryl)methyl)amino)pyridin-3-yl)-6-(methyl-d3)-6,7-dihydro-7,14-methanobenzo[f]benzo[4,5]imidazo[1,2-a][1,4]diazocin-5(14H)-one] the IC50 was under 100 nM.
With `[2H]C([2H])([2H])N1C(=O)c2cccc(OC(F)F)c2[C@H]2C[C@@H]1c1nc3ccc(-c4ccc(C(O)P(=O)(CC)CC)cc4)cc3n12` (stereo partly drawn) [Example 101, (7R,14R)-11-(4-((diethylphosphoryl)(hydroxy)methyl)phenyl)-1-(difluoromethoxy)-6-(methyl-d3)-6,7-dihydro-7,14-methanobenzo[f]benzo[4,5]imidazo[1,2-a][1,4]diazocin-5(14H)-one] the IC50 was under 100 nM.
Work on `[2H]C([2H])([2H])N1C(=O)c2cccc(OC(F)F)c2[C@H]2C[C@@H]1c1nc3ccc(-c4ccc(P(C)(C)=O)cc4C(F)F)cc3n12` [Example 102, (7R,14R)-1-(difluoromethoxy)-11-(2-(difluoromethyl)-4-(dimethylphosphoryl)phenyl)-6-(methyl-d3)-6,7-dihydro-7,14-methanobenzo[f]benzo[4,5]imidazo[1,2-a][1,4]diazocin-5(14H)-one] yielded an IC50 of under 100 nM.
`[2H]C([2H])([2H])N1C(=O)c2cccc(OC(F)F)c2[C@H]2C[C@@H]1c1nc3ccc(-c4ccc(P(C)(C)=O)c(C(F)F)c4)cc3n12` [Example 103, (7R,14R)-1-(difluoromethoxy)-11-(3-(difluoromethyl)-4-(dimethylphosphoryl)phenyl)-6-(methyl-d3)-6,7-dihydro-7,14-methanobenzo[f]benzo[4,5]imidazo[1,2-a][1,4]diazocin-5(14H)-one] was tested, and the IC50 was under 100 nM.
In the case of `[2H]C([2H])([2H])N1C(=O)c2cccc(OC(F)F)c2[C@H]2C[C@@H]1c1nc3ccc(-c4ccc(P(C)(C)=O)cc4C(F)(F)F)cc3n12` [Example 104, (7R,14R)-1-(difluoromethoxy)-11-(4-(dimethylphosphoryl)-2-(trifluoromethyl)phenyl)-6-(methyl-d3)-6,7-dihydro-7,14-methanobenzo[f]benzo[4,5]imidazo[1,2-a][1,4]diazocin-5(14H)-one], the IC50 is reported as 100 to 1000 nM.
`[2H]C([2H])([2H])N1C(=O)c2cccc(OC(F)F)c2[C@H]2C[C@@H]1c1nc3ccc(-c4ccc(P(C)(C)=O)c(C)c4)cc3n12` [Example 105, (7R,14R)-1-(difluoromethoxy)-11-(4-(dimethylphosphoryl)-3-methylphenyl)-6-(methyl-d3)-6,7-dihydro-7,14-methanobenzo[f]benzo[4,5]imidazo[1,2-a][1,4]diazocin-5(14H)-one] gave an IC50 of under 100 nM.
With `[2H]C([2H])([2H])N1C(=O)c2cccc(OC(F)F)c2[C@H]2C[C@@H]1c1nc3ccc(-c4cc(C)c(P(C)(C)=O)c(F)c4)cc3n12` [Example 106, (7R,14R)-1-(difluoromethoxy)-11-(4-(dimethylphosphoryl)-3-fluoro-5-methylphenyl)-6-(methyl-d3)-6,7-dihydro-7,14-methanobenzo[f]benzo[4,5]imidazo[1,2-a][1,4]diazocin-5(14H)-one] the IC50 was under 100 nM.
Molecule `[2H]C([2H])([2H])N1C(=O)c2cccc(OC(F)F)c2[C@H]2C[C@@H]1c1nc3ccc(-c4ccc(P(C)(C)=O)c(C)c4F)cc3n12` [Example 107, (7R,14R)-1-(difluoromethoxy)-11-(4-(dimethylphosphoryl)-2-fluoro-3-methylphenyl)-6-(methyl-d3)-6,7-dihydro-7,14-methanobenzo[f]benzo[4,5]imidazo[1,2-a][1,4]diazocin-5(14H)-one] has an IC50 of under 100 nM.
`[2H]C([2H])([2H])N1C(=O)c2cccc(OC(F)F)c2[C@H]2C[C@@H]1c1nc3ccc(-c4cc(F)c(CP(C)(C)=O)cc4C)cc3n12` [Example 108, (7R,14R)-1-(difluoromethoxy)-11-(4-((dimethylphosphoryl)methyl)-5-fluoro-2-methylphenyl)-6-(methyl-d3)-6,7-dihydro-7,14-methanobenzo[f]benzo[4,5]imidazo[1,2-a][1,4]diazocin-5(14H)-one] was tested, and the IC50 was under 100 nM.
With `[2H]C([2H])([2H])N1C(=O)c2cccc(OC(F)F)c2[C@H]2C[C@@H]1c1nc3ccc(-c4ccc(P(C)(C)=O)c(F)n4)cc3n12` [Example 115, (7R,14R)-1-(difluoromethoxy)-11-(5-(dimethylphosphoryl)-6-fluoropyridin-2-yl)-6-(methyl-d3)-6,7-dihydro-7,14-methanobenzo[f]benzo[4,5]imidazo[1,2-a][1,4]diazocin-5(14H)-one] the IC50 was under 100 nM.
`[2H]C([2H])([2H])N1C(=O)c2cccc(OC(F)F)c2[C@H]2C[C@@H]1c1nc3ccc(-c4ccc(C(C)P(C)(C)=O)nc4)cc3n12` (stereo partly drawn) [Example 116, (7R,14R)-1-(difluoromethoxy)-11-(6-(1-(dimethylphosphoryl)ethyl)pyridin-3-yl)-6-(methyl-d3)-6,7-dihydro-7,14-methanobenzo[f]benzo[4,5]imidazo[1,2-a][1,4]diazocin-5(14H)-one] was tested, and the IC50 was under 100 nM.
Work on `[2H]C([2H])([2H])N1C(=O)c2cccc(OC(F)F)c2[C@H]2C[C@@H]1c1nc3ccc(-c4ccc(P(C)(C)=O)c(Cl)c4)cc3n12` [Example 117, (7R,14R)-11-(3-chloro-4-(dimethylphosphoryl)phenyl)-1-(difluoromethoxy)-6-(methyl-d3)-6,7-dihydro-7,14-methanobenzo[f]benzo[4,5]imidazo[1,2-a][1,4]diazocin-5(14H)-one] yielded an IC50 of under 100 nM.
Work on `[2H]C([2H])([2H])N1C(=O)c2cccc(OC(F)F)c2[C@H]2C[C@@H]1c1nc3ccc(-c4ccc(C(C)(C)P(C)(C)=O)nc4)cc3n12` [Example 120, (7R,14R)-1-(difluoromethoxy)-11-(6-(2-(dimethylphosphoryl)propan-2-yl)pyridin-3-yl)-6-(methyl-d3)-6,7-dihydro-7,14-methanobenzo[f]benzo[4,5]imidazo[1,2-a][1,4]diazocin-5(14H)-one] yielded an IC50 of under 100 nM.
Molecule `[2H]C([2H])([2H])N1C(=O)c2cccc(OC(F)F)c2[C@H]2C[C@@H]1c1nc3ccc(-c4ccc(P(C)(C)=O)c(Cl)n4)cc3n12` [Example 121, (7R,14R)-11-(6-chloro-5-(dimethylphosphoryl)pyridin-2-yl)-1-(difluoromethoxy)-6-(methyl-d3)-6,7-dihydro-7,14-methanobenzo[f]benzo[4,5]imidazo[1,2-a][1,4]diazocin-5(14H)-one] has an IC50 of 100 to 1000 nM.
Work on `[2H]C([2H])([2H])N1C(=O)c2cccc(OC(F)F)c2[C@H]2C[C@@H]1c1nc3ccc(-c4ccc(P(C)(C)=O)c(C(F)(F)F)c4)cc3n12` [Example 122, (7R,14R)-1-(difluoromethoxy)-11-(4-(dimethylphosphoryl)-3-(trifluoromethyl)phenyl)-6-(methyl-d3)-6,7-dihydro-7,14-methanobenzo[f]benzo[4,5]imidazo[1,2-a][1,4]diazocin-5(14H)-one] yielded an IC50 of 100 to 1000 nM.
`[2H]C([2H])([2H])N1C(=O)c2cccc(OC(F)F)c2[C@H]2C[C@@H]1c1nc3ccc(-c4cc(F)c(P(C)(C)=O)c(C)n4)cc3n12` [Example 123, (7R,14R)-1-(difluoromethoxy)-11-(5-(dimethylphosphoryl)-4-fluoro-6-methylpyridin-2-yl)-6-(methyl-d3)-6,7-dihydro-7,14-methanobenzo[f]benzo[4,5]imidazo[1,2-a][1,4]diazocin-5(14H)-one] showed an IC50 of 100 to 1000 nM.
